Patent publication US4015974A, “Amido phosphorothiolates” (priority 1972, dated 1977)

Experiments:
Format in all cases: in vivo
[1] = test system: barnyard grass (Echinochloa crus-galli); assay: Pre-emergence application, herbicidal effect on barnyard grass (Table 1); design: key: 0: not damaged; 5: completely killed; settings: 20 days after application, score 0-5
Excerpt: (§1) Seeds of barnyard grass (Echinochloa crus-galli) and large crabgrass (Digitaria sanguinalis) as representatives of grassy weeds and those of radish, redroot pigweed (Amaranthus retroflexus), common purslane (Portulaca oleracea) and common lambsquarter (Chenopodium album) as representatives of broad-leaved weeds were individually sowed in flower pots of about 10 cm. in diameter. After covering the seeds with soil, test compounds as shown in Table 1 were individually applied to the soil treatment. Thereafter the plants were grown in a green house and 20 days after application the herbicidal effects of the compounds were observed, the results of which are as shown in Table 1.
(§2) Herbicidal effects were evaluated by the numerals ranging from 0 (not damaged) to 5 (completely killed). All the test compounds were used in the form of wettable powder and diluted with water before application.

[2] = test system: large crabgrass (Digitaria sanguinalis); assay: Pre-emergence application, herbicidal effect on large crabgrass (Table 1); design: key: 0: not damaged; 5: completely killed; settings: 20 days after application, score 0-5
Excerpt: as §1, §2

[3] = test system: radish; assay: Pre-emergence application, herbicidal effect on radish (Table 1); design: key: 0: not damaged; 5: completely killed; settings: 20 days after application, score 0-5
Excerpt: as §1, §2

[4] = test system: redroot pigweed (Amaranthus retroflexus); assay: Pre-emergence application, herbicidal effect on redroot pigweed (Table 1); design: key: 0: not damaged; 5: completely killed; settings: 20 days after application, score 0-5
Excerpt: as §1, §2

[5] = test system: common purslane (Portulaca oleracea); assay: Pre-emergence application, herbicidal effect on common purslane (Table 1); design: key: 0: not damaged; 5: completely killed; settings: 20 days after application, score 0-5
Excerpt: as §1, §2

[6] = test system: common lambsquarter (Chenopodium album); assay: Pre-emergence application, herbicidal effect on common lambsquarter (Table 1); design: key: 0: not damaged; 5: completely killed; settings: 20 days after application, score 0-5
Excerpt: as §1, §2

[7] = test system: rice; assay: Water application, phytotoxicity on rice (Table 2); design: key: 0: no effect; 1: very slightly affected; 2: slightly affected; 3: moderately affected; 4: considerably affected; 5: completely killed; settings: 25 days, score 0-5
Excerpt: (§3) Wagner pots of 14 cm. in diameter, which had been packed with 1.5 kg. of paddy field soil, were brought into the state of paddy fields. To the pots were transplanted rice seedlings at the 3-leave stage. Further, seeds of barnyard grass (Echinochloa crus-galli) were sowed in the pots and required amounts of test compounds were applied to the soil under water lodged condition. 25 days after application, the degrees of herbicidal activity and phytotoxity were investigated on above-mentioned plants which had been transplanted and sowed, and on broad-leaved weeds, e.g., monochoria (Monochoria viaginalis Presl.), false pimpernel (Linderna pyxidaria) and toothcup (Rotala indica Koehue), which had been spontaneously germinated. The test compounds were used in the form of wettable powder. The herbicidal effects and the phytotoxity were evaluated as follows by the numerals ranging from 0 to 5.

[8] = test system: barnyard grass (Echinochloa crus-galli); assay: Water application, herbicidal effect on barnyard grass (Table 2); design: key: 0: not damaged; 5: completely killed; settings: 25 days, score 0-5
Excerpt: as §3

[9] = test system: broad-leaved weeds, e.g., monochoria, false pimpernel and toothcup; assay: Water application, herbicidal effect on broad-leaved weeds (Table 2); design: key: 0: not damaged; 5: completely killed; settings: 25 days, score 0-5
Excerpt: as §3

Row | Compound | Herbicidal effect, barnyard grass ([1]; 10 g./a.) | Herbicidal effect, barnyard grass ([1]; 20 g./a.) | Herbicidal effect, barnyard grass ([1]; 40 g./a.) | Herbicidal effect, large crabgrass ([2]; 10 g./a.) | Herbicidal effect, large crabgrass ([2]; 20 g./a.) | Herbicidal effect, large crabgrass ([2]; 40 g./a.) | Herbicidal effect, radish ([3]; 10 g./a.) | Herbicidal effect, radish ([3]; 20 g./a.) | Herbicidal effect, radish ([3]; 40 g./a.) | Herbicidal effect, redroot pigweed ([4]; 10 g./a.) | Herbicidal effect, redroot pigweed ([4]; 20 g./a.) | Herbicidal effect, redroot pigweed ([4]; 40 g./a.) | Herbicidal effect, common purslane ([5]; 10 g./a.) | Herbicidal effect, common purslane ([5]; 20 g./a.) | Herbicidal effect, common purslane ([5]; 40 g./a.) | Herbicidal effect, common lambsquarter ([6]; 10 g./a.) | Herbicidal effect, common lambsquarter ([6]; 20 g./a.) | Herbicidal effect, common lambsquarter ([6]; 40 g./a.) | Phytotoxicity on rice ([7]; 10 g/a) | Phytotoxicity on rice ([7]; 20 g/a) | further results
1 | CCCCCCSP(=O)(OCC)SCC(=O)N1CCCCC1C (stereo not drawn) [Compound 62] | 4 | 5 | 5 | 4 | 5 | 5 | 0 | 0 | 0 | 3 | 4 | 5 | 3 | 4 | 5 | 4 | 4 | 5 | 0 | 0 | Phytotoxicity on rice ([7]; 40 g/a): 0; Herbicidal effects, barnyard grass ([8]; 10 g/a): 5; Herbicidal effects, barnyard grass ([8]; 20 g/a): 5; Herbicidal effects, barnyard grass ([8]; 40 g/a): 5; Herbicidal effects, broad-leaved weeds ([9]; 10 g/a): 5; Herbicidal effects, broad-leaved weeds ([9]; 20 g/a): 5; Herbicidal effects, broad-leaved weeds ([9]; 40 g/a): 5
2 | CCOP(=O)(SCC(=O)N1CCCCC1C)SC(C)c1ccccc1 (stereo not drawn) [Compound 64] | 4 | 5 | 5 | 4 | 5 | 5 | 0 | 0 | 0 | 3 | 3 | 4 | 3 | 3 | 4 | 3 | 4 | 4 | 0 | 0 | Phytotoxicity on rice ([7]; 40 g/a): 0; Herbicidal effects, barnyard grass ([8]; 10 g/a): 5; Herbicidal effects, barnyard grass ([8]; 20 g/a): 5; Herbicidal effects, barnyard grass ([8]; 40 g/a): 5; Herbicidal effects, broad-leaved weeds ([9]; 10 g/a): 5; Herbicidal effects, broad-leaved weeds ([9]; 20 g/a): 5; Herbicidal effects, broad-leaved weeds ([9]; 40 g/a): 5
3 | CCCOP(=O)(SC)SCC(=O)N1CCCCC1C (stereo not drawn) [Compound 66] | 5 | 5 | 5 | 5 | 5 | 5 | 0 | 0 | 1 | 5 | 5 | 5 | 5 | 5 | 5 | 5 | 5 | 5 | 0 | 0 | Phytotoxicity on rice ([7]; 40 g/a): 0; Herbicidal effects, barnyard grass ([8]; 10 g/a): 5; Herbicidal effects, barnyard grass ([8]; 20 g/a): 5; Herbicidal effects, barnyard grass ([8]; 40 g/a): 5; Herbicidal effects, broad-leaved weeds ([9]; 10 g/a): 5; Herbicidal effects, broad-leaved weeds ([9]; 20 g/a): 5; Herbicidal effects, broad-leaved weeds ([9]; 40 g/a): 5
4 | CCCOP(=O)(SCC(=O)N1CCCCC1C)SCC(C)C (stereo not drawn) [Compound 67] | 4 | 5 | 5 | 4 | 5 | 5 | 0 | 0 | 0 | 4 | 4 | 5 | 4 | 4 | 5 | 3 | 4 | 5 | 0 | 0 | Phytotoxicity on rice ([7]; 40 g/a): 0; Herbicidal effects, barnyard grass ([8]; 10 g/a): 5; Herbicidal effects, barnyard grass ([8]; 20 g/a): 5; Herbicidal effects, barnyard grass ([8]; 40 g/a): 5; Herbicidal effects, broad-leaved weeds ([9]; 10 g/a): 5; Herbicidal effects, broad-leaved weeds ([9]; 20 g/a): 5; Herbicidal effects, broad-leaved weeds ([9]; 40 g/a): 5
5 | CCCCCSP(=O)(OCCC)SCC(=O)N1CCCCC1C (stereo not drawn) [Compound 68] | 4 | 4 | 5 | 4 | 4 | 5 | 0 | 0 | 0 | 4 | 4 | 5 | 3 | 4 | 5 | 4 | 4 | 5 | 0 | 0 | Phytotoxicity on rice ([7]; 40 g/a): 0; Herbicidal effects, barnyard grass ([8]; 10 g/a): 5; Herbicidal effects, barnyard grass ([8]; 20 g/a): 5; Herbicidal effects, barnyard grass ([8]; 40 g/a): 5; Herbicidal effects, broad-leaved weeds ([9]; 10 g/a): 5; Herbicidal effects, broad-leaved weeds ([9]; 20 g/a): 5; Herbicidal effects, broad-leaved weeds ([9]; 40 g/a): 5
6 | CCCOP(=O)(SCCC(C)C)SCC(=O)N1CCCCC1C (stereo not drawn) [Compound 69] | 4 | 5 | 5 | 5 | 5 | 5 | 0 | 0 | 0 | 4 | 5 | 5 | 4 | 5 | 5 | 4 | 5 | 5 | 0 | 0 | Phytotoxicity on rice ([7]; 40 g/a): 1; Herbicidal effects, barnyard grass ([8]; 10 g/a): 5; Herbicidal effects, barnyard grass ([8]; 20 g/a): 5; Herbicidal effects, barnyard grass ([8]; 40 g/a): 5; Herbicidal effects, broad-leaved weeds ([9]; 10 g/a): 5; Herbicidal effects, broad-leaved weeds ([9]; 20 g/a): 5; Herbicidal effects, broad-leaved weeds ([9]; 40 g/a): 5
7 | C=CCSP(=O)(OCCC)SCC(=O)N1CCCCC1C (stereo not drawn) [Compound 70] | 5 | 5 | 5 | 5 | 5 | 5 | 0 | 0 | 0 | 5 | 5 | 5 | 5 | 5 | 5 | 5 | 5 | 5 | 0 | 0 | Phytotoxicity on rice ([7]; 40 g/a): 2; Herbicidal effects, barnyard grass ([8]; 10 g/a): 5; Herbicidal effects, barnyard grass ([8]; 20 g/a): 5; Herbicidal effects, barnyard grass ([8]; 40 g/a): 5; Herbicidal effects, broad-leaved weeds ([9]; 10 g/a): 5; Herbicidal effects, broad-leaved weeds ([9]; 20 g/a): 5; Herbicidal effects, broad-leaved weeds ([9]; 40 g/a): 5
